# pIC50: −log10 of the molar value.
# How the values were obtained:
# [1] = target: T1, hemichannels formed by connexin 43 (Mus musculus, UniProt P23242); experiment: Ethidium uptake in HeLa Cx43-EGFP cells induced by divalent cation free solution (DCFS); type: cell-based; conditions: for ethidium uptake speed or rate by minute (dye uptake) induced by DCFS: 10 nM
# T1 construct: expressed in transfected cells; host or cells: HeLa
# Description: FIG. 3. Ethidium uptake in HeLa Cx43-EGFP. Effect of DCFS. A: Cells in culture. B: Ethidium uptake chart in HeLa Cx43-EGFP. C: extracelular DCSF induces the inlet of ethidium in Cx43; the effect of DCSF is shown, which was blocked by the inhibiting molecule (MX) (10 nM), (P<0.05, n=4).
# (§1) […] HeLa cells transfected with connexins 26 or 43 are used. In order to evaluate the activity of each compound over the connexin hemichannels, 10^3 HeLa cells transfected with connexins are shown by well in multi-well ([…]) plates 24 h before each experiment. Then, the cells are washed in a Locke solution that contains normal levels of divalent cations (Ca^2+ and Mg^2+) or a cation-free divalent Locke solution that contains 5 μm of ethidium bromide. Parallel to this, the cells are treated with different concentrations of each candidate compound and incubated for 5 min.
# As indicated by the scheme of FIG. 2, the HeLa cells transfected with connexin 43 (Cx43) are shown in multi-well (96) plates and after 24 h the ethidium uptake is evaluated in the presence of cation free solution (DCFS) in the presence or absence of the compound in question. The ethidium uptake is evaluated as the fluorescence emitted measured with a fluorometer. If the value of fluorescence in the presence of the inhibitor is equal or close to that measured in cells bathed with a solution that contains divalent cations, the compound corresponds to an inhibitor of hemichannels formed by connexins. On the contrary, if the fluorescence value emitted by cells exposed to a possible inhibitor in DCFS is equal to that of cells bathed only with DCFS (without the compound in question), the compound is not an inhibitor of hemichannels formed by connexins. […]
# In FIG. 3, the upper left panel (A) corresponds to a phase microphotograph, where the HeLa cells can be noted that express connexin 43 conjugated with green fluorescent protein (EGFP) present in the microscopic field. […] Clearly, the inhibiting molecule inhibits the activity of hemichannels evaluated as dye uptake.
# [2] = target: T2, gap junction channels formed by connexin 26 (Mus musculus, UniProt Q00977); experiment: Incidence of cellular coupling evaluated with microinjections of Lucifer yellow; type: cell-based; conditions: 1 nM; Lucifer yellow microinjection
# T2 construct: expressed in transfected cells; host or cells: HeLa
# Description: FIG. 5. Incidence percentage of coupling according to the time.
# (§2) The molecules that inhibit the hemichannels formed by connexins are evaluated by their action on the hemichannels formed by panexine 1. The molecules inhibiting the hemichannels formed by connexins in the nanomolar range are studied as possible inhibitors of intercellular binding channels using the coupling technique to dyes and through electrophysiology using double fixing of voltage.
# FIG. 5 depicts that the cells transfected with connexin 26 are very well coupled to gap junction channels. The incidence of the cellular coupling evaluated with microinjections of Lucifer yellow is close to 100% (black boxes).
# [3] = target: T1, hemichannels formed by connexin 43; experiment: Unit currents of hemichannels in HeLa cells bathed in saline solution without Ca2+; type: cell-based; conditions: 10 nM
# From the text: FIG. 4. Unit streams of the hemichannels formed by connexin 43 in HeLa cells bathed in saline solution without calcium ion (or Ca^2+) and in the presence of EGTA.
# Should the molecules not inhibit the intercellular channels formed by connexins in the millimolar range and not affect the hemichannels formed by panexine 1, its inhibiting effect of currents of hemichannels formed by connexins using the voltage fixing methodology in the modality of full cell.
# The unit currents of the hemichannels formed by connexin 43 are very frequent in the HeLa cells bathed with a saline solution without the calcium ion (or Ca^2+) (see FIG. 4, the two upper tracings).
# [4] = target: T3, gap junction channels formed by connexin 43 (Mus musculus, UniProt P23242); experiment: Cellular coupling assessed with the transfer of ethidium in HeLa-Cx43 cells; type: cell-based; conditions: for effect on gap junction channels (in words): connexin isoform and concentration not stated
# T3 construct: expressed in transfected cells; host or cells: HeLa
# Description: FIG. 6. Cellular coupling assessed with the transfer of ethidium. A. Effect of the different inhibitors in HeLa-Cx43 cells (transfected with connexin 43). B. Cellular coupling index.
# as §2
# [5] = target: T4, hemichannels formed by panexine 1 (Panx1) (Homo sapiens, UniProt Q96RD7); experiment: Functional status of panexine 1 hemichannels activated by mechanic stress; type: cell-based; conditions: for effect on hemichannels formed by panexines (in words): concentration not given
# T4 construct: expressed in transfected cells
# Description: FIG. 7. Functional status of the hemichannels formed by panexine1 (Panx1) driven by mechanic stress.
# (§3) The cells are incubated in an extracellular medium without divalent cations in order to increase the opening probability of hemichannels formed by connexins. In addition, as negative control parental cells not expressing hemichannels and cells transfected with panexine 1 and mechanically stimulated to induce the opening of the hemichannels formed by panexine 1.
# Therefore, the compound is an inhibitor of hemichannels formed by highly specific conexins.
# [6] = system: hemichannels formed by connexins (26 or 43); experiment: In vitro test of blocking the opening/activation of hemichannels; permeability tracer (ethidium) uptake in transfected HeLa cells; type: cell-based, Mouse; conditions: for % Inhibition Hemichannel activity (Cx26 o 43): inhibition of the permeability tracer at a concentration of 5 μM, HeLa cells transfected with connexins 26 or 43
# Description: The compounds are tested in experiments based on cells that are deficient in the expression of hemichannels and transfected with different connexins in order to evaluate and/or confirm their capacity of modulating the transport through the cellular membrane. The transport of permeability tracing molecules is evaluated and compared with the inhibitors of channels formed by connexins known, such as beta glycyrrhetinic acid (BGA) and carbenoxolone (CBX).
# as §3
# In vitro test of blocking the opening/activation of hemichannels formed by connexins (26 or 43).
# The capacity of the different tracing molecules was tested in vitro to evaluate the capacity of the compounds of reducing the transport of these molecules using the HeLa cells transfected with connexins 26 or 43.
# as §1
# As indicated by the scheme of FIG. 2, the HeLa cells transfected with connexin 43 (Cx43) are shown in multi-well (96) plates and after 24 h the ethidium uptake is evaluated in the presence of cation free solution (DCFS) in the presence or absence of the compound in question. The ethidium uptake is evaluated as the fluorescence emitted measured with a fluorometer. If the value of fluorescence in the presence of the inhibitor is equal or close to that measured in cells bathed with a solution that contains divalent cations, the compound corresponds to an inhibitor of hemichannels formed by connexins. On the contrary, if the fluorescence value emitted by cells exposed to a possible inhibitor in DCFS is equal to that of cells bathed only with DCFS (without the compound in question), the compound is not an inhibitor of hemichannels formed by connexins. The same test is performed with different concentrations of each compound in order to determine the minimum effective concentration (EC50).
# [7] = in vitro hemichannel blocking, connexins 26 or 43
# T1 sequence (P23242 whole entry): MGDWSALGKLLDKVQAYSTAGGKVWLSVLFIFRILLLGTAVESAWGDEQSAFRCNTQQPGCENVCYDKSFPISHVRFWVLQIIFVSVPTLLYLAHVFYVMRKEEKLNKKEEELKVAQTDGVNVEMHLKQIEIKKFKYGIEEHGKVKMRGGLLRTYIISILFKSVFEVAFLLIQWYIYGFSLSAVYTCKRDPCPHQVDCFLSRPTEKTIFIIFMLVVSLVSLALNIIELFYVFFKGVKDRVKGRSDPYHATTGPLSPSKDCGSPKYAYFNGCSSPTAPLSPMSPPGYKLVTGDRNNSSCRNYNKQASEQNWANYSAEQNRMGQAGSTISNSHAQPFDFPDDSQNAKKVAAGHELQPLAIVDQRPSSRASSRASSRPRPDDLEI
# T3 sequence (P23242 whole entry, canonical isoform): as the sequence (P23242 whole entry) above
# T4 sequence (Q96RD7 whole entry, species assumed): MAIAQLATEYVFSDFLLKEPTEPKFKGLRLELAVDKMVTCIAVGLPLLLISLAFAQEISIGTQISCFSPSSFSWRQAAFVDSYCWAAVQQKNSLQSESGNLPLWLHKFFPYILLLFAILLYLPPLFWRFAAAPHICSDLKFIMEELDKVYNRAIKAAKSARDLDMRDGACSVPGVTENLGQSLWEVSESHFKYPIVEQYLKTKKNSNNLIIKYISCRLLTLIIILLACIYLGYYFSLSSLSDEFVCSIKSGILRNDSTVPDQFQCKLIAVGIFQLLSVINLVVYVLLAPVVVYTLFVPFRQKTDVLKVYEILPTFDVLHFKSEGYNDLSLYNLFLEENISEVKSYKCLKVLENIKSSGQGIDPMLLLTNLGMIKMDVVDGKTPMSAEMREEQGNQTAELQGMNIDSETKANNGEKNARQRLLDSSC
smiles,measurement,setting,value
"O=C(O[C@@H](C(=O)c1ccc(Cl)cc1)c1ccccc1)c1ccc2ccccc2n1 [compound 4, (R)-2-(4-chlorofenil)-2-oxo-1-fenilethlyquinoline-2-caroxilate]",ethidium uptake speed or rate by minute (dye uptake) induced by DCFS,[1],completely inhibited
same,ethidium uptake speed or rate by minute (dye uptake) induced by DCFS,[1]; listed as MX,blocked
same,reversal of the inhibition with the washing of DCFS,[1]; after 10 nM,partially reversed
same,"coupling incidence, gap junction channels formed by connexin 26",[2],does not significantly reduce
same,activity (unit currents) of the hemichannels formed by connexin 43,[3],drastically inhibited
same,cellular coupling mediated with gap junction channels formed by connexin 43,"[4]; 1 nM, ethidium transfer, HeLa-Cx43",does not inhibit
same,functional status of Panx1 hemichannels activated by mechanic stress,[5]; 100 nM,not inhibited
"O=C(O[C@@H](C(=O)c1ccc(Cl)cc1)c1ccccc1)c1ccc2ccccc2n1 [Example 1 (A), (R)-2-(4-chlorofenil)-2-oxo-1-fenilethylquinoline-2-carboxylate]",inhibition of hemichannels formed by connexins (in words),[6],potent inhibitors
same,% Inhibition Hemichannel activity (Cx26 o 43),[6],0%
same,effect on gap junction channels (in words),[4],do not affect
same,effect on hemichannels formed by panexines (in words),[5],do not affect
"C#C[C@]1(O)CC[C@H]2[C@@H]3CC=C4C[C@@H](OC(=O)CCC5CCCCC5)CC[C@]4(C)[C@H]3CC[C@@]21C [Example 6 (F), (3S,8R,9S,10R,13S,14S,17R)-17-ethynil-17-hydroxi-10,13-dimethyl-2,3,4,7,8,9,10,11,12,13,14,15,16,17-tetradecahydro-1H-ciclopenta[a]fenantren-3-yl 3-ciclohexilpropanoate]",% Inhibition Hemichannel activity (Cx26 o 43),[6],0%
"CC1(C)[C@@H](OC(=O)CCC(=O)O)CC[C@]2(C)[C@H]3C(=O)C=C4[C@@H]5C[C@@](C)(C(=O)O)CC[C@]5(C)CC[C@@]4(C)[C@]3(C)CC[C@@H]12 [carbenoxolone, reference compound]",functional status of Panx1 hemichannels activated by mechanic stress,[5]; 5 μm,totally blocked
"Clc1ccc(N2CCN(CCCN3CCN(c4ccc(Cl)cc4)CC3)CC2)cc1 [Example 2 (B), 1,3-bis(4-(4-chlorofenil)piperazin-1-il)propane]",% Inhibition Hemichannel activity (Cx26 o 43),[6],20%
"O=C(O)C(Oc1ccc(-c2ccccc2)cc1)Oc1ccc(-c2ccccc2)cc1 [Example 3 (C), Acetic 2,2-bis([1,1′-bifenil]-4-iloxi) acid]",% Inhibition Hemichannel activity (Cx26 o 43),[6],0%
"C[C@]12C[C@@H](F)C(=O)C[C@@H]1CC[C@@H]1[C@@H]2CC[C@]2(C)[C@@H](OC(=O)c3ccccc3)CC[C@@H]12 [Example 4 (D), (2R,5S,8R,9S,10S,13S,14S,17S)-2-fluoro-10,13-dimethyl-3-oxohexadecahydro-1H-ciclopenta[a]fenantren-17-il benzoate]",inhibition of hemichannels formed by connexins (in words),[6],potent inhibitors
same,pIC50,[6]; [7],7.70
same,efficacy,[6]; [7],100%
same,% Inhibition Hemichannel activity (Cx26 o 43),[6],100%
same,effect on gap junction channels (in words),[4],do not affect
same,effect on hemichannels formed by panexines (in words),[5],do not affect
"CC(=O)O[C@H]1CC[C@@]2(C)[C@@H](CC[C@@H]3[C@@H]2CC[C@]2(C)[C@@H](OC(=O)C4CCCCC4)CC[C@@H]32)C1 [Example 5 (E), (3S,5S,8R,9S,10S,13S,14S,17S)-3-acetoxi-10,13-dimethylhexadecahydro-1H-ciclopenta[a]fenantren-17-il ciclohexanocarboxilate]",efficacy,[6]; [7],100%
same,% Inhibition Hemichannel activity (Cx26 o 43),[6],100%
"Cc1cc(N2CCOCC2)nc2ccc(Cc3ccc4nc(N5CCOCC5)cc(C)c4c3)cc12 [Example 7 (G), bis(4-methyl-2-morfolinquinoline-6-yl)methane]",% Inhibition Hemichannel activity (Cx26 o 43),[6],0%
